Source: ChEMBL document CHEMBL3739410, “The natural product brartemicin is a high affinity ligand for the carbohydrate-recognition domain of the macrophage receptor mincle” (Medchemcomm, 2015)

Species: Bos taurus
Experiment: Displacement of radioiodinated Man31-bovine serum albumin from biotin-tagged bovine mincle CRD after 2 hr by scintillation counting analysis relative to alpha,alpha-trehalose

- Ratio Ki: 290
SMILES: Cc1cc(O)cc(O)c1C(=O)OC[C@H]1O[C@H](O[C@H]2O[C@H](COC(=O)c3c(C)cc(O)cc3O)[C@@H](O)[C@H](O)[C@H]2O)[C@H](O)[C@@H](O)[C@@H]1O
